Test results reported in patent publication US11980645B2, “Bile acids and use in disease treatment” (The Regents of the University of California, priority 2019, dated 2024).

What was measured:
[1] = LC-MS/MS screen of murine portal and peripheral blood for conjugated bile acids
From the text: Portal and peripheral blood was collected from additional SPF (n=4) and GF (n=6) mice and screened for the presence of conjugated bile acids.
Bile Acids in Murine Portal and Peripheral Blood. An additional 4 SPF and 6 GF female mice of the same strain analyzed for the initial study on the microbial metabolome were raised for analysis of blood. Portal blood and peripheral blood were sampled as described in the methods section and analyzed with the same LC-MS/MS protocols as the original animals.

[2] = tested on: human fecal batch culture; assay: Incubation with actively growing human fecal batch culture (metabolism by microbiota); format: in vitro ADME; details: 10 μM bile acid, 24 h
From the text: FIGS. […]. Distribution and metabolism of novel conjugated bile acids. FIG. 9a) Molecular network of SPF duodenum MS/MS data and synthesized amino acid conjugated bile acids. LC-MS/MS data from synthetic standards was networked with murine samples and spectral matching through molecular networking is indicated by node greyscale. Mirror plots showing the alignment between the murine and standards are shown. Nodes shaped as arrowheads had hits in the GNPS libraries and node size is scaled to the spectral count. Tauro=Taurocholic acid. These experiments were repeated twice. FIG. 9b) 3D-molecular cartography of the mean abundance of the newly discovered conjugates mapped onto a 3D-rendered model of the murine GI tract as a heatmap according to the greyscale. Organs are labeled as described in FIG. 1. FIG. 9c) Molecular network of GF and SPF portal and peripheral blood conjugated bile acids. Nodes are colored by source as either GF and SPF or portal/peripheral blood. Arrowhead nodes represent known compounds in the GNPS spectral database, circular nodes represent unknowns. The annotations are through spectral matches against reference libraries (level 2 or 3^3). FIG. 9d) Mean area under curve abundance and standard deviations of bile acids of interest during incubation with an actively growing batch human fecal culture for 24 h (n=3). FIG. 9e) Molecular network of novel conjugated bile acids after incubation in a human fecal batch culture experiment. Each node represents a unique MS/MS spectrum and arrowhead shaped nodes indicate known spectra in the GNPS database. The nodes are greyscale by their retention time according to the legend and the mass shift between nodes are mapped onto the edge representing the cosine connection between related spectra. The H2 mass shift representing oxidation of the novel conjugates is shown. FIG. 9f) Mean ion intensity and standard deviations of the dehydrogenated forms of Phe-chol, Tyr-chol and Leu-chol through the 24 h batch fecal culture incubation (n=3).
Fecal Culture Bioreactor Inoculation. A 4 g stool sample was resuspended in 40 mL modified yeast casitone fatty acids media (mYCFA, DMSZ recipe) with 0.25% Antifoam B Silicon Emulsion (Baker) in a vinyl anaerobic chamber (Coy). The resuspension was centrifuged at 500× g for 5 minutes to pellet solids. The supernatant was decanted through a sterile […] filter. The filtrate was centrifuged at 4450× g for 10 minutes to pellet cells. The supernatant was discarded, and the pellet was resuspended in 40 mL mYCFA. The resuspension was drawn into a 60 mL syringe and injected into a 500 mL vessel of an Infors Multifors 2 bioreactor. The chemostat process parameters was modified from a previous process developed in^26. The chemostat volume parameters were; 400 mL culture volume, 24-hour retention rate, 50 mL/min nitrogen, stirrer at 250 rpm, and 37° C. temperature. […] 15 μL stocks were added to 12 mL mYCFA. After 11 days of continuous culturing, 24 mL bioreactor culture was withdrawn and transferred to the anaerobic chamber. 3 mL culture was added to the 12 mL mYCFA aliquots with the bile acids, for a total volume of 15 mL and final concentration of 10 μM bile acid. The cultures were vortexed and split into three 5 mL aliquots. At time 0 (blanks for each bile acid), 1, 3, 6, 12 and 24 hours, 0.1 mL aliquots were removed from the samples for metabolomics and 16S rRNA gene sequencing. […]

[3] = tested on: FXR effector genes Fgf15, Shp, Cyp7a1, Cyp8b1; assay: Bile acid gavage of mice, RT-qPCR of downstream FXR effector genes in ileum and liver; details: for Fgf15 expression in the intestine, increase / Shp expression in the intestine, increase: oral gavage 500 mg/kg in corn oil
Description: The gene expression of Fgf15 and Shp in the ileum and Shp, Cyp8b1 and Cyp7a1 in the liver of mice gavaged with bile acids of interest were analyzed using quantitative reverse transcriptase-PCR analysis. The expression levels were normalized to the cellular housekeeping gene ribosomal phosphoprotein PO (36B4).
Bile acid Gavage of Mice. Eight-week-old Male C57BL/6J mice (Jackson Laboratory) were acclimated for 14 days and housed in groups of two throughout the duration of the experiment to mitigate cage effects. Mice were then dosed 2 times (24 hour) or 4 times (72 hour) (t=0 hr, t=24 hr, t=48 hr, t=72 hr) by oral gavage with either a mock control of corn oil without bile acids, or corn oil infused Tyr-chol (500 mg/kg body weight), Leu-chol (500 mg/kg body weight), cholic acid (500 mg/kg body weight) or the control FXR agonist GW4064 (10 mg/kg body weight). Starting 3 hours after the last gavage (t=75 hr, 72 hour treatment or t=25, 24 hour treatment), mice were euthanized by CO2 asphyxiation and samples were collected within a 6 hour period and snap frozen in a liquid nitrogen bath and stored at −80° C. prior to analysis. […] Ileum and liver samples were used for qPCR.
RT-qPCR Analysis of Downstream FXR Gene Expression. Mouse liver and ileum segments were directly homogenized in TRIzol and total RNA isolated. cDNA was synthesized from 1 μg of DNase-treated total RNA using Bio-Rad iScript Reverse Transcription supermix (#1708841) and mRNA levels of Fgf15, Shp, Cyp7b1 and Cyp7a1 were quantified by quantitative PCR with Advanced Universal SyBr Green Supermix (Bio-Rad, cat #725271). All samples were run in technical triplicates and relative mRNA levels were calculated by using the standard curve methodology and normalized to 36B4.

human FXR = molecular target: T1, human FXR (Homo sapiens, UniProt Q96RI1); assay: FXR luciferase reporter assay in HEK-293 cells; details: for human FXR agonism: HEK-293 luciferase reporter
T1 sequence (Q96RI1 1-486): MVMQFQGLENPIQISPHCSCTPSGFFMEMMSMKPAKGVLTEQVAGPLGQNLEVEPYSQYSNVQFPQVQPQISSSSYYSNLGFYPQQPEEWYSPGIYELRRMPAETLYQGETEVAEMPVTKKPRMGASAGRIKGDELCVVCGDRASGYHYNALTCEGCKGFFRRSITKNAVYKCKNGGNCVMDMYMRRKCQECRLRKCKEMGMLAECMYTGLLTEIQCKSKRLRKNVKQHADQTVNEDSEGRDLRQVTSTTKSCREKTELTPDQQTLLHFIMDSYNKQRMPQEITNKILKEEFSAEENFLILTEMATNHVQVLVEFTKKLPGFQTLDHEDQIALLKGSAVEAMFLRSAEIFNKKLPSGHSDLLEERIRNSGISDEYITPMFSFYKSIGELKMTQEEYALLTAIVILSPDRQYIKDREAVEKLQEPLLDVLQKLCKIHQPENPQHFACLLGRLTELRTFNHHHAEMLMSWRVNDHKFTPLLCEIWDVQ
T1 sequence (P19793 1-462 partner): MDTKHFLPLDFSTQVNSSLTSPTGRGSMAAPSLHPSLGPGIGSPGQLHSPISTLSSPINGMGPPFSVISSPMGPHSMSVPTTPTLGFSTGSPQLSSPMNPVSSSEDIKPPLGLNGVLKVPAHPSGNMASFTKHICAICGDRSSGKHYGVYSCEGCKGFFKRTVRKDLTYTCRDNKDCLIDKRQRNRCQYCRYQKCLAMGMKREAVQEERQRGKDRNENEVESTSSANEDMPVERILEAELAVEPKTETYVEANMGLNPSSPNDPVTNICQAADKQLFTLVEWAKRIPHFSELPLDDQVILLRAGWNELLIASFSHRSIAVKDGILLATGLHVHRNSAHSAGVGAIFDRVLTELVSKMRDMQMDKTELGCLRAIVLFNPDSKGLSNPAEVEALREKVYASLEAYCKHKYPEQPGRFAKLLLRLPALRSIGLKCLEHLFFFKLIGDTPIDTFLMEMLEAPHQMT
Description: To assess the ability of the novel bile acids from the invention to affect human FXR signaling, a luciferase reporter assay was established in HEK-293 embryonic kidney cells^39.
Human kidney cell line HeK-293 was obtained from American Type Culture Collection (ATCC CRL-1573, tested for Mycoplasma contamination every 6 months). These cells were chosen due to their high transfectability and low FXR expression which allows for a robust signal to noise ratio. These 293 cells were cultured in Dulbecco's modified Eagle's medium/F-12 (DMEM) supplemented with 10% (V/V heat-inactivated fetal calf serum (FBS) and 100 units/ml penicillin G and 100 μg/ml streptomycin. 10,000 cells were seeded per well in 96-well plates one day before transfection of plasmids. DNA was transiently transfected by Lipofectamine 2000 and Opti-MDM in fasting state. The ratio of plasmid used in per well were 50 ng of FXR response element (FXRE)/luciferase reporter plasmid, 10 ng of pCMV-3flag-FXR (human) plasmid, 10 ng of pCMV-RXR (human) plasmid, and 5 ng of Renilla luciferase reporter plasmid as internal standard for transfection efficiency. […] Cells were harvested 24 hrs later and lysed with passive lysis buffer (Promega). Luciferase activities were measured by the Dual-Luciferase Reporter (DLR™) Assay kit and read by Luminometer (Perkin Elmer). The final Luciferase activities were normalized by dividing the relative light units by Renilla luciferase activity. Statistical analyses were performed using Prism software. Each dosage was done in 12 replicates.

Structure (SMILES) | presence in portal and peripheral blood ([1]; mouse, in vivo) | deconjugation by the microbiota [2] | liver Cyp7a1 expression vs corn oil control (significance) ([3]; gavage, 24 hrs) | liver Cyp8b1 expression vs corn oil control (significance) ([3]; gavage, 24 hrs) | ileum Fgf15 signaling vs corn oil control (significance) ([3]; gavage, 72 hrs) | ileum Shp signaling vs corn oil control (significance) ([3]; gavage, 72 hrs) | liver Cyp7a1 expression vs corn oil control (significance) ([3]; gavage, 72 hrs) | liver Cyp8b1 expression vs corn oil control (significance) ([3]; gavage, 72 hrs) | other results
C[C@H](CCC(=O)NCC(=O)O)[C@H]1CC[C@H]2[C@@H]3[C@H](O)C[C@@H]4C[C@H](O)CC[C@]4(C)[C@H]3C[C@H](O)[C@]12C [GCA, glycocholic acid, reference compound] | present | deconjugation readily occurred |  |  |  |  |  |  | oxidation of the cholate core by microbial enzymes [2]: no concurrent oxidation
CC(C)c1onc(-c2c(Cl)cccc2Cl)c1COc1ccc(/C=C/c2cccc(C(=O)O)c2)c(Cl)c1 [GW4064, reference compound] |  |  |  |  |  |  |  |  | ileum Shp expression vs corn oil control (significance) ([3]; gavage, 24 hr): significance was also reached
CC(C)C[C@H](NC(=O)CC[C@@H](C)[C@H]1CC[C@H]2[C@@H]3[C@H](O)C[C@@H]4C[C@H](O)CC[C@]4(C)[C@H]3C[C@H](O)[C@]12C)C(=O)O [Leu-chol, leucocholic acid] | not found | not deconjugated | significantly reduced | significantly reduced | significantly increased | significantly increased | significantly reduced | significantly reduced | liver Shp expression vs corn oil control (significance) ([3]; gavage, 72 hrs): significantly elevated
C[C@H](CCC(=O)N[C@@H](Cc1ccccc1)C(=O)O)[C@H]1CC[C@H]2[C@@H]3[C@H](O)C[C@@H]4C[C@H](O)CC[C@]4(C)[C@H]3C[C@H](O)[C@]12C [Phe-chol, phenylalanocholic acid] | not found | not deconjugated |  |  |  |  |  |  | EC50 (human FXR): 4.5 µM; human FXR agonism (human FXR): strong human FXR agonists
C[C@H](CCC(=O)NCCS(=O)(=O)O)[C@H]1CC[C@H]2[C@@H]3[C@H](O)C[C@@H]4C[C@H](O)CC[C@]4(C)[C@H]3C[C@H](O)[C@]12C [TCA, Taurocholic acid, reference compound] |  |  |  |  |  |  |  |  | presence in portal and peripheral blood ([1]; SPF (n=4) and GF (n=6) mice, endogenous): present
C[C@H](CCC(=O)N[C@@H](Cc1ccc(O)cc1)C(=O)O)[C@H]1CC[C@H]2[C@@H]3[C@H](O)C[C@@H]4C[C@H](O)CC[C@]4(C)[C@H]3C[C@H](O)[C@]12C [Tyr-chol, tyrosocholic acid] | not found | not deconjugated | significantly reduced | significantly reduced | significantly increased | significantly increased | significantly reduced | significantly reduced | EC50 (human FXR): 0.14 µM; human FXR agonism (human FXR): strong human FXR agonists; ileum Fgf15 expression vs corn oil control (significance) ([3]; gavage, 24 hr): significantly elevated; Shp expression in the liver ([3]; gavage, 24 hrs): did not change detectably; liver Cyp7a1 expression ([3]; gavage, 24 hrs): 9 % of control; liver Cyp8b1 expression ([3]; gavage, 24 hrs): 69 % of control; Shp expression in the liver, increase ([3]; gavage, 72 hrs): 2.3 fold; liver Shp expression vs corn oil control (significance) ([3]; gavage, 72 hrs): significantly elevated; liver Cyp7a1 expression ([3]; gavage, 72 hrs (4 gavages)): 8 % of control; liver Cyp8b1 expression ([3]; gavage, 72 hrs (4 gavages)): 2 % of control; Fgf15 expression in the intestine, increase ([3]; 24 hrs): 12.2 fold; Shp expression in the intestine, increase ([3]; 24 hrs): 13.3 fold; Fgf15 expression in the intestine, increase ([3]; 72 hrs (4 gavages)): 6.2 fold; Shp expression in the intestine, increase ([3]; 72 hrs (4 gavages)): 9.3 fold
C[C@H](CCC(=O)O)[C@H]1CC[C@H]2[C@@H]3[C@H](O)C[C@@H]4C[C@H](O)CC[C@]4(C)[C@H]3C[C@H](O)[C@]12C [cholic acid, reference compound] |  |  | significantly reduced | significantly reduced | significantly increased | significantly increased | significantly reduced | significantly reduced | ileum Shp expression vs corn oil control (significance) ([3]; gavage, 24 hr): significance was also reached
